According to patent US20220087990A1, “APPLICATION OF RIFAMYCIN-QUINOLIZIDONE CONJUGATE MOLECULE AND PHARMACEUTICALLY ACCEPTABLE SALT THEREOF” (priority 2019, published 2022):
Values after ≈ are worked out from the molar mass of the structure shown. Like-named read-outs stand apart in the source and are kept apart here.

Experiments:
[1] = test system: Staphylococcus aureus ATCC 29213; assay: MIC measured by fluid broth microdilution method (quality control); format: cell-based; details: ATCC29213
[2] = test system: Staphylococcus aureus ATCC 29213; assay: MIC measured by agar dilution method, quality control strain; format: cell-based; details: strain 100, MSSA QC strain
Procedure: (§1) Spontaneous mutation and minimal inhibit concentration (MIC) tested by agar dilution method, the above compounds are respectively prepared into a stock solution (100X) with a concentration 100 times the highest final concentration in corresponding solvents and used on the same day. Before use, I is further diluted with DMSO; and oxacillin, rifampicin and levofloxacin are further diluted with water.
(§2) Bacterial isolates: Staphylococcus aureus isolates are retrieved from the −80° C. storage room of Micromyx Culture Collection, thawed, plated onto Tryptic Soy Agar+5% sheep blood (Remel; Lenexa, Kans.), and then incubated aerobically at 35° C. overnight. S. aureus ATCC 29213 (MRSA; MMX 0100) was included during testing only for the purpose of quality control. Test Media: The isolates were tested in both the agar dilution MIC assay and the spontaneous mutation assay using Mueller-Hinton Agar (MHA; BD/BBL; Lot No. 6229829 & 4216798). Inocula of each isolate were suspended in cation-adjusted Mueller-Hinton Broth (CAMHB) (BD/BBL; Lot Nos. 5257869 & 6258541). Sodium chloride (Sigma-Aldrich; Lot No. SLBL0434V) was added to CAMHB at a final concentration of 2% when testing oxacillin. Dilutions of bacterial cell suspensions for the purpose of performing colony counts were also made in CAMHB.
(§3) MIC measured by agar dilution method: according to the recommendation from the Clinical and Laboratory Standards Institute (CLSI), the MIC value is measured by the agar dilution method. […] Each test agent was combined with molten MHA agar (50-55° C.) at a ratio of 0.2 mL of 100× test agent to 19.8 mL agar in a sterile tube, mixed gently, and then poured into a sterile petri plate (BD Falcon). Plates were allowed to solidify at room temperature. A 0.5 McFarland standard bacterial suspension was prepared, diluted 1:10 in CAMHB, and transferred to the wells of a stainless steel replicator block before stamping onto plates containing drug, resulting in 10^4 CFU/spot. After allowing the inoculum to dry on the surface of the agar, the plates were inverted, incubated aerobically at 35° C. for 20-24 hr, and inspected for growth.
In parallel experiments, a standard bacterium suspension with a […] turbidity of 0.5 is prepared as a standard inoculum for agar dilution analysis (10^4 CFU/point). […] In this step, the broths and drugs used in the spontaneous mutation analysis are used to confirm that the concentration of the drug stock solution can inhibit the growth of the standard inoculum. The quality of the levofloxacin stock solution is controlled by a standard inoculum and levofloxacin of 8-0.008 μg/mL, and separate agar dilution analysis is performed. […]

[3] = test system: methicillin-resistant Staphylococcus aureus (MRSA) isolates; assay: MIC measured by agar dilution method (CLSI); format: cell-based; details: for MIC: Staphylococcus aureus, MRSA
Procedure: as §1, §2, §3

[4] = test system: Staphylococcus aureus ATCC 29213; details: agar dilution; cited from earlier work
[5] = strain 3085, LEV^S RIF^S, agar dilution
[6] = strain 3090, LEV^R RIF^S, agar dilution
[7] = strain 3094, LEV^R RIF^S, agar dilution
[8] = strain 3098, LEV^S RIF^S, agar dilution
[9] = strain 3265, LEV^R RIF^S, agar dilution
[10] = strain 3266, LEVR RIFS, agar dilution
[11] = strain 3270, LEV^R RIF^S, agar dilution
[12] = strain 3271, LEV^R RIF^S, agar dilution
[13] = strain 3277, LEV^S RIF^S, agar dilution
[14] = strain 3278, LEV^S RIF^S, agar dilution
[15] = strain 6312, LEV^R RIF^S, agar dilution
[16] = strain 6313, LEV^R RIF^S, agar dilution
[17] = strain 6315, LEV^R RIF^S, agar dilution
[18] = strain 6498, LEV^R RIF^S, agar dilution
[19] = strain 6501, LEV^R RIF^S, agar dilution
[20] = strain 6505, LEV^R RIF^S, agar dilution
[21] = strain 7771, LEV^R RIF^S, agar dilution
[22] = strain 7772, LEV^S RIF^S, agar dilution
[23] = strain 7773, LEV^R RIF^S, agar dilution
[24] = strain 7774, LEV^R RIF^S, agar dilution
[25] = strain 7775, LEV^R, agar dilution

SMILES	MIC [2] [µg/mL]	MIC [3, 5] [µg/mL]	MIC [3, 6] [µg/mL]	MIC [3, 7] [µg/mL]	MIC [3, 8] [µg/mL]	MIC [3, 9] [µg/mL]	MIC [3, 10] [µg/mL]	MIC [3, 11] [µg/mL]	MIC [3, 12] [µg/mL]	MIC [3, 13] [µg/mL]	MIC [3, 14] [µg/mL]	MIC [3, 15] [µg/mL]	MIC [3, 16] [µg/mL]	MIC [3, 17] [µg/mL]	MIC [3, 18] [µg/mL]	MIC [3, 19] [µg/mL]	MIC [3, 20] [µg/mL]	MIC [3, 21] [µg/mL]	MIC [3, 22] [µg/mL]	MIC [3, 23] [µg/mL]	also measured
C[C@H]1COc2c(N3CCN(C)CC3)c(F)cc3c(=O)c(C(=O)O)cn1c23 [Levofloxacin]	0.25 (≈ 0.692 µM)	0.25 (≈ 0.692 µM)	32 (≈ 88.6 µM)	> 64	0.25 (≈ 0.692 µM)	64 (≈ 177 µM)	64 (≈ 177 µM)	4 (≈ 11.1 µM)	4 (≈ 11.1 µM)	0.25 (≈ 0.692 µM)	0.25 (≈ 0.692 µM)	16 (≈ 44.3 µM)	16 (≈ 44.3 µM)	> 64	8 (≈ 22.1 µM)	8 (≈ 22.1 µM)	4 (≈ 11.1 µM)	> 64	0.25 (≈ 0.692 µM)	8 (≈ 22.1 µM)	MIC [1]: 0.25 µg/mL (≈ 0.692 µM); MIC ([3]; read-out: MIC over all strains under test): 0.25 to 64 µg/mL (≈ 0.692 to 177 µM); MIC [3, 24]: > 64 µg/mL; MIC [3, 25]: 16 µg/mL (≈ 44.3 µM)
Cc1onc(-c2ccccc2)c1C(=O)N[C@@H]1C(=O)N2[C@@H]1SC(C)(C)[C@@H]2C(=O)O [Oxacillin]	0.25 (≈ 0.623 µM)	> 8	> 8	> 8	> 8	> 8	> 8	> 8	> 8	> 8	> 8	> 8	> 8	> 8	> 8	> 8	> 8	> 8	> 8	> 8	MIC quality control range of CLSI [4]: 0.12 to 0.5 µg/mL; sensitivity of the strains (resistant / sensitive) [3]: resistant; MIC [3, 24]: > 8 µg/mL; MIC [3, 25]: > 8 µg/mL
